Literature values, collected in patent US5998416A, “Piperazine, piperidine and tetrahydropyridine derivatives as 5-HT receptor agonists” (Merck Sharp & Dohme Ltd., priority 1996, dated 1999).

Conditions: therapeutic doses

## CNS(=O)(=O)Cc1ccc2[nH]cc(CCN(C)C)c2c1 [sumatriptan]
  adverse cardiovascular events in humans: certain adverse cardiovascular events
